What all share (type): physicochemical
Series [1] is described as follows: Cetane number, ASTM D6890 / D613. The settings on record: for Cetane number: ASTM D6890. How it is done:
“Cetane number” refers to a measure of how readily a fuel starts to burn (autoignite) under conditions described by ASTM D613 or ASTM D6890. A fuel with a high cetane number starts to burn shortly after it is injected into the cylinder; it has a short ignition delay period. Conversely, a fuel with a low cetane number resists autoignition and has a longer ignition delay period.
(§1) Fuel property testing of hydrogenated bisabolene was carried out using standard ASTM methods known to and used by those of skill in the art. Table 1 sets forth the various fuel properties analyzed for each of Diesel Fuel Grade #2, bisabolene (mixture of isomers) and hydrogenated bisabolene as well as the ASTM test methods employed to analyze the particular fuel property.

The nature of another series: Density, ASTM D4052. The note with it: ASTM D4052, 15.56° C. How it is done:
“Density” refers to a measure of mass per volume at a particular temperature. The generally accepted method for measuring the density of a fuel is ASTM Standard D4052, which is incorporated herein by reference.
as §1

Series [2] is described as follows: Cloud point, ASTM D5773 / D2500. How it is done:
as §1

The nature of another series: API gravity, ASTM D4052. The note with it: ASTM D4052, 15.56° C. How it is done: as §1
A short description of the next series: Freeze point, ASTM D5972. As for the experimental part:
as §1

Series [3] in a line: Distillation temperature, ASTM D2887 / D86. How it is done:
as §1

The nature of series [4]: Kinetic viscosity, ASTM D445. The settings on record: ASTM D445, 40° C. As for the experimental part: “Viscosity” refers to a measure of the resistance of a fuel or fuel composition to deform under shear stress. The generally accepted method for measuring the viscosity of a fuel is ASTM Standard D445, which is incorporated herein by reference.
as §1

A further series can be described thus: Flash point, ASTM D93. As for the experimental part: as §1

Marks after values point to notes of the source that are not given here. Bounds are passed on as bounds.

For `CC(C)CCCC(C)C1CCC(C)CC1` (stereo not shown) [Hydrogenated biosynthetic bisabolene, 1(1,5-dimethylhexyl)-4-methylcyclohexane], the Cetane number in series [1] worked out at 52.6.
Take `CC(C)CCCC(C)C1CCC(C)CC1` (stereo not shown) [Hydrogenated commercial bisabolene, 1(1,5-dimethylhexyl)-4-methylcyclohexane]: the “Density (@ 15.56° C.)” value in “Density, ASTM D4052” was determined as 819.7 kg/m^3. The Cloud point in series [2] is less than −78 °C. Moreover, the “API Gravity (@ 15.56° C.)” value in “API gravity, ASTM D4052” was 41. In “Freeze point, ASTM D5972”, this molecule displayed a Freeze point of less than −81 °C. Besides, the Distillation in series [3] is reported as 267^d ° C. The “Kinetic viscosity (@ 40° C.)” value in series [4] was 2.91 mm^2/s. Also, the Flash point in the series “Flash point, ASTM D93” was 111 °C. In series [1], the Cetane number turned out to be 41.9.
For the molecule `CC(C)CCCC(C)C1CCC(C)CC1` (stereo not shown) [hydrogenated bisabolene], the “Derived Cetane Number (DCN)” value in series [1] is given as “about 42”.
